Test results as given in US20230303599A1, “PRODRUGS OF PHOSPHONAMIDE NUCLEOTIDE ANALOGUES AND THEIR PHARMACEUTICAL USE” (priority 2020, published 2023).
Converted amounts (≈) assume the structure as drawn.

Key:
[1] = Cytotoxicity assay in MT-4 cells; assay type: cell-based; details: human, uninfected MT-4 cells, average of at least two independent experiments, read-out: MT4 CC50
Method: Compounds were tested in a high-throughput 384-well assay format for their ability to inhibit the replication of HIV-1 (IIIB) in MT-4 cells. Compounds were serially diluted (1:3) in DMSO on 384-well polypropylene plates and further diluted 200-fold into complete RPMI media (10% FBS, 1% P/S) using the Biotek Micro Flow and Labcyte ECHO acoustic dispenser. Each plate contained up to 8 test compounds, with negative (no drug) and positive (5 μM AZT) controls. MT-4 cells were pre-treated with 10 μL of either RPMI (mock-infected) or a fresh 1:250 dilution of HIV-1 IIIB concentrated virus stock. Infected and uninfected MT-4 cells were further diluted in complete RPMI media and added to each plate using a Micro Flow dispenser. After 5 days incubation in a humidified and temperature-controlled incubator (37° C.), Cell Titer Glo (Promega) was added to the assay plates and chemiluminescence read using an Envision plate-reader. EC50 values were defined as the compound concentration that causes a 50% decrease in luminescence signal and were calculated using a sigmoidal dose-response model to generate curve fits and are shown in Table 1.
Example 105: Cytotoxicity Assay in MT-4 Cells
Assays were performed as described in Example 104 except uninfected MT-4 cells were added to each well containing test compound. In addition, 10 μM puromycin was added to the last column of each assay plate to assess a base level of cytotoxicity.

[2] = Cytotoxicity assay in primary human hepatocytes (PHHs); assay type: cell-based; details: HBV-infected primary human hepatocytes, HBV-infected PHH, Cell Titer Glo, average of at least two independent experiments
Method: Example 107: Cytotoxicity Assay in Primary Human Hepatocytes (PHHs)
The HBV-infected primary human hepatocytes are seeded (20K cells/well in 80 uL of Media) in 384well collagen coated plates pre-spotted with compounds. After 5 days, 40 ul of cell supernatant is removed to quantify HBV DNA levels as described in Example 106. Then, 40 ul Cell Titer Glo Reagent (Promega Catalog Number: G7572) is added to the remaining cells and luminescence is measured on the EnVision microplate reader.

[3] = Kinetic solubility analysis; assay type: physicochemical; details: 1× PBS, 24.2 °C, aqueous buffer, kinetic from dmso stock; pH 7.4 PBS, 1% DMSO, 24-hour incubation at ambient temperature
Method: Example 108: Kinetic Solubility Analysis
Buffer Preparation: 0.1 N HCl: Hydrochloric acid, 0.1 N standardized solution (MP Biomedicals part number 199569). 1×PBS, pH 7.4: Phosphate Buffered Saline (PBS) solution 10× (Fisher Bioreagent part number BP399-500) 50 mL was added to approximately 450 mL HPLC grade H2O. The volume of the solution was then adjusted to 500 mL for a total dilution factor of 1:10 and a final PBS concentration of 1×.
The final DMSO concentration was 1.0% (v/v) and maximum theoretical compound concentration is 100 μM (for compound stock concentration of 10 mM). The filter plate was sealed. Following 24-hour incubation at ambient temperature (24.2-27.5° C.), the samples were vacuum filtered and the filtrates were collected in a 96 well polypropylene plate for analysis. The collection plate was sealed for analysis. Filtrates were injected into the Antek 8060 chemiluminescent nitrogen detector for quantification. The results are reported in μM.
The filtrates were quantified with respect to this calibration curve. Each calculated solubility value was corrected for background nitrogen present in the DMSO and in the medium used to prepare the sample. All reported values for compounds containing adjacent nitrogen atoms in a ring structure were increased by approximately 25%.

solubility kinetic at 24 h [3]	Compound	CC50 at 5 days [1]	CC50 at 5 days [2]
< 1 µg/mL	C[C@H](Cn1cnc2c(N)ncnc21)OCP(=O)(NC(C)(C)C(=O)OCCC12CC(C1)C2)NC(C)(C)C(=O)OCCC12CC(C1)C2 [Example 62, Bis(2-(bicyclo[1.1.1]pentan-1-yl)ethyl) 2,2′-(((((1-(6-amino-9H-purin-9-yl)propan-2-yl)oxy)methyl)phosphoryl)bis(azanediyl))(R)-bis(2-methylpropanoate)]	3.19 µM	> 100 nM
50 µg/mL (≈ 78.4 µM)	C[C@H](Cn1cnc2c(N)ncnc21)OCP(=O)(NC(C)(C)C(=O)OCc1ccccc1)NC(C)(C)C(=O)OCc1ccccc1 [Example 3, Dibenzyl 2,2′-(((((1-(6-amino-9H-purin-9-yl)propan-2-yl)oxy)methyl)phosphoryl)bis(azanediyl))(R)-bis(2-methylpropanoate)]	4.46 µM	> 100 nM
2 µg/mL (≈ 2.45 µM)	CCCCCCOC(=O)C(C)(C)NP(=O)(CO[C@H](C)Cn1cnc2c(NC(=O)OCCOC(=O)c3ccccc3)ncnc21)NC(C)(C)C(=O)OCCCCCC [Example 94, Dihexyl 2,2′-(((((1-(6-(((2-(benzoyloxy)ethoxy)carbonyl)amino)-9H-purin-9-yl)propan-2-yl)oxy)methyl)phosphoryl)bis(azanediyl))(R)-bis(2-methylpropanoate)]	8.22 µM	> 100 nM
57 µg/mL (≈ 91.7 µM)	CCCCCCOC(=O)C(C)(C)NP(=O)(CO[C@H](C)Cn1cnc2c(N)ncnc21)NC(C)(C)C(=O)OCC12CC(C1)C2 (stereo partly drawn) [Example 77, Bicyclo[1.1.1]pentan-1-ylmethyl 2-((((((R)-1-(6-amino-9H-purin-9-yl)propan-2-yl)oxy)methyl)((1-(hexyloxy)-2-methyl-1-oxopropan-2-yl)amino)phosphoryl)amino)-2-methylpropanoate]	> 50 µM	> 100 nM
	CCCCCCCOC(=O)C(C)(C)NP(=O)(CO[C@H](C)Cn1cnc2c(N)ncnc21)NC(C)(C)C(=O)OCCCCCCC [Example 66, Diheptyl 2,2′-(((((1-(6-amino-9H-purin-9-yl)propan-2-yl)oxy)methyl)phosphoryl)bis(azanediyl))(R)-bis(2-methylpropanoate)]	4.77 µM	> 100 nM
< 1 µg/mL	CCCCCCCCCCCC(=O)Nc1ncnc2c1ncn2C[C@@H](C)OCP(=O)(NC(C)(C)C(=O)OCCCCCC)NC(C)(C)C(=O)OCCCCCC [Example 30, Dihexyl 2,2′-(((((1-(6-dodecanamido-9H-purin-9-yl)propan-2-yl)oxy)methyl)phosphoryl)bis(azanediyl))(R)-bis(2-methylpropanoate)]		> 100 nM
< 1 µg/mL	C[C@H](Cn1cnc2c(N)ncnc21)OCP(=O)(NC(C)(C)C(=O)OC1CCC2(CCCC2)CC1)NC(C)(C)C(=O)OC1CCC2(CCCC2)CC1 (stereo partly drawn) [Example 61, Di(spiro[4.5]decan-8-yl) 2,2′-(((((1-(6-amino-9H-purin-9-yl)propan-2-yl)oxy)methyl)phosphoryl)bis(azanediyl))(R)-bis(2-methylpropanoate)]	6 µM	> 100 nM
12 µg/mL (≈ 16.9 µM)	CCCCCCOC(=O)C(C)(C)NP(=O)(CO[C@H](C)Cn1cnc2c(NC(=O)OCCC)ncnc21)NC(C)(C)C(=O)OCCCCCC [Example 31, Dihexyl 2,2′-(((((1-(6-((propoxycarbonyl)amino)-9H-purin-9-yl)propan-2-yl)oxy)methyl)phosphoryl)bis(azanediyl))(R)-bis(2-methylpropanoate)]	9.01 µM	> 100 nM
53 µg/mL (≈ 88.7 µM)	CCCCCOC(=O)C(C)(C)NP(=O)(CO[C@H](C)Cn1cnc2c(N)ncnc21)NC(C)(C)C(=O)OCCCCC [Example 4, Dipentyl 2,2′-(((((1-(6-amino-9H-purin-9-yl)propan-2-yl)oxy)methyl)phosphoryl)bis(azanediyl))(R)-bis(2-methylpropanoate)]	8.42 µM	> 100 nM
1 µg/mL (≈ 1.42 µM)	CCC[C@H]1CC[C@H](OC(=O)C(C)(C)NP(=O)(CO[C@H](C)Cn2cnc3c(N)ncnc32)NC(C)(C)C(=O)O[C@H]2CC[C@H](CCC)CC2)CC1 [Example 27]		> 100 nM
59 µg/mL (≈ 99.4 µM)	C[C@H](Cn1cnc2c(N)ncnc21)OCP(=O)(NC(C)(C)C(=O)OC1CCCC1)NC(C)(C)C(=O)OC1CCCC1 [Example 34, Dicyclopentyl 2,2′-(((((1-(6-amino-9H-purin-9-yl)propan-2-yl)oxy)methyl)phosphoryl)bis(azanediyl))(R)-bis(2-methylpropanoate)]	3.67 µM	
< 1 µg/mL	C[C@H](Cn1cnc2c(N)ncnc21)OCP(=O)(NC(C)(C)C(=O)OCC12CCC(CC1)C2)NC(C)(C)C(=O)OCC12CCC(CC1)C2 [Example 87, Bis(bicyclo[2.2.1]heptan-1-ylmethyl) 2,2′-(((((1-(6-amino-9H-purin-9-yl)propan-2-yl)oxy)methyl)phosphoryl)bis(azanediyl))(R)-bis(2-methylpropanoate)]	5.05 µM	> 100 nM
22 µg/mL (≈ 34.5 µM)	CCCCCCOC(=O)C(C)(C)NP(=O)(CO[C@H](C)Cn1cnc2c(N)ncnc21)NC1(C(=O)OCCCCCC)CCC1 (stereo partly drawn) [Example 18, Hexyl 1-((((((R)-1-(6-amino-9H-purin-9-yl)propan-2-yl)oxy)methyl)((1-(hexyloxy)-2-methyl-1-oxopropan-2-yl)amino)phosphoryl)amino)cyclobutane-1-carboxylate]	6.57 µM	
60 µg/mL (≈ 111 µM)	CCCOC(=O)C(C)(C)NP(=O)(CO[C@H](C)Cn1cnc2c(N)ncnc21)NC(C)(C)C(=O)OCCC [Example 36, Dipropyl 2,2′-(((((1-(6-amino-9H-purin-9-yl)propan-2-yl)oxy)methyl)phosphoryl)bis(azanediyl))(R)-bis(2-methylpropanoate)]	8.96 µM	
	CCCCCCOC(=O)C(CC)(CC)NP(=O)(CO[C@H](C)Cn1cnc2c(N)ncnc21)NC(CC)(CC)C(=O)OCCCCCC [Example 65, Dihexyl 2,2′-(((((1-(6-amino-9H-purin-9-yl)propan-2-yl)oxy)methyl)phosphoryl)bis(azanediyl))(R)-bis(2-ethylbutanoate)]	6.71 µM	> 100 nM
